{"source": "patent US10696971B2", "about": "“MrgprX2/MrgprB2 expressing cell based assay to detect pseudo-allergic drug reactions and to identify blockers to prevent the adverse reactions” (The Johns Hopkins University, priority 2014, dated 2020)", "key": {"[1]": {"test_system": "peritoneal mast cells", "assay": "Mouse peritoneal mast cell histamine release assay", "assay_type": "cell-based", "details": "WT vs MrgprB2^MUT peritoneal mast cells", "description": "Mast cells were purified as with the calcium imaging assay and allowed to recover for 2 hours in DMEM with 10% FBS and 25 ng/ml mouse stem cell factor in a 37° C. incubator with 5% CO2. Cells were then spun down, resuspended in CIB, counted, and plated at 300 cells/well in 75 μl CIB in 96-well plates coated with 20 μg/ml fibronectin (Sigma). They were allowed to adhere to the substrate for 45 minutes at 37° C. in atmospheric conditions (i.e. CO2 levels were not adjusted) before assay. […] After 5 minutes, 40 μl of supernatant was aspirated, diluted with 40 μl CIB and frozen at −80° C. until histamine levels were determined. Anti-IgE treatment was similar, except that cells were incubated for 30 minutes at 37° C. after anti-IgE was added before aspiration of supernatant. Histamine content was determined by using an HTRF histamine assay kit (Cisbio Assays) according to the manufacturer's instructions."}, "[2]": {"test_system": "WT and MrgprB2^MUT mice", "assay": "Systemic anaphylaxis assay (body core temperature)", "assay_type": "in vivo, mouse", "details": "ciprofloxacin i.v. 1.5 mg in 125 μl saline after propranolol, much smaller drop in MrgprB2^MUT", "description": "To minimize stress, animals were transported to the procedure area the day before injections. Adult male and female mice up to 8 months of age (25 to 35 grams) were given an intraperitoneal injection of 80 μg propranolol in saline (2 mg/ml) immediately after removal from their cages, and then placed back in their cages for 30 minutes before intravenous injections. The intravenous injections were performed on one mouse at a time. For each injection, a mouse was placed in a transport box and brought to a room with no other mice, to minimize stress from vocalizations during injection. The mouse was then placed in a restrainer, and the injection was performed within 4 minutes of restraint because it was observed that longer restraint times affected body core temperature independent from the injection. […] The injection was determined to be successful only when all of the criteria were met: blood appeared in the syringe after needle insertion, all tail veins were visible after injection, and the mouse bled slightly from the injection site after needle withdrawal. The injection site was swabbed until blood stopped flowing, the mouse was placed in a separate cage from its housing cage, one mouse per cage, and returned to the room it was brought from. […] Body core temperature was measured with a rectal thermometer."}, "[3]": {"test_system": "LAD2 human mast cells", "assay": "LAD2 degranulation assay (β-hexosaminidase release), with MrgprX2 siRNA knockdown", "assay_type": "cell-based", "details": "compound 48/80 0.1, mastoparan 5, icatibant 10, atracurium 25, ciprofloxacin 75 μg/ml", "description": "LAD2 cells were sensitized for 20 hours with 0.5 μg/ml biotin-conjugated human IgE (Abbiotec). Cells were washed, resuspended in Hepes buffer (10 mM HEPES, 137 mM NaCl, 2.7 mM KCl, 0.38 mM Na2HPO4.7H2O, 5.6 mM glucose, 1.8 mM CaCl2.H2O, 1.3 mM MgSO4.7H2O, 0.4% BSA, pH 7.4) at 0.025×10^6 per well, and then stimulated with 0.1 μg/ml streptavidin (Life Technologies) or other agonists at the indicated concentrations for 30 minutes at 37° C./5% CO2. The β-hexosaminidase released into the supernatants and in cell lysates was quantified by hydrolysis of p-nitrophenyl N-acetyl-β-D-glucosamide (Sigma-Aldrich) in 0.1 M sodium citrate buffer (pH 4.5) for 90 minutes at 37° C. The percentage of β-hexosaminidase release was calculated as a percent of total content.\nLAD2 cells were washed with medium, suspended at 0.5×10^6 cells per well, and transfected with 100 nm MrgprX2 siRNA and control siRNA in antibiotic-free StemPro medium using Lipofectamine 3000 (Life Technologies) according to the manufacturer's instruction at 37° C./5% CO2. At 48 hours, knockdown was confirmed by reverse-transcriptase PCR, and the cells were used for degranulation assays."}}}
{"smiles": "O=C(O)c1cn(C2CC2)c2cc(N3CCNCC3)c(F)cc2c1=O", "note": "[ciprofloxacin]", "values": [{"measurement": "histamine release from WT peritoneal mast cells (MrgprB2^MUT released substantially less)", "setting": "[1]", "value": "induced histamine release"}, {"measurement": "change in body temperature", "setting": "[2]", "value": "induced a rapid drop in body temperature"}, {"measurement": "β-hexosaminidase release in MrgprX2 siRNA vs control siRNA cells", "setting": "[3]", "value": "significantly reduced"}]}
